Reference: ChEMBL document CHEMBL4304757, “Synthetic heterocyclic candidates as promising α-glucosidase inhibitors: An overview” (Eur J Med Chem, 2019)
pIC50: −log10 of the molar value.

These compounds were tested against Alpha glucosidase (Homo sapiens, UniProt O43451+P10253+P14410+Q2M2H8) (assay: Inhibition of alpha-glucosidase (unknown origin)).
Assay type: protein assay

Row | Compound | pIC50 | IC50 | Ki
1 | CCOc1ccccc1NC(=O)Cn1cc(Cn2c(-c3cccc(Br)c3)nc(-c3ccccc3)c2-c2ccccc2)nn1 | – | 15 µM | 14 µM
2 | O=C(C[C@@H](c1cccc(Br)c1)c1c[nH]c2ccccc12)c1ccccc1 | 4.37 to 5.37 | – | –
3 | COc1ccc([C@H](CC(=O)c2ccccc2)c2c[nH]c3ccccc23)cc1 | 4.37 to 5.37 | – | –
4 | COc1ccc(NC(=O)Cn2cc(Cn3c(-c4cccs4)nc(-c4ccccc4)c3-c3ccccc3)nn2)cc1 | 4.32 to 4.82 | – | –
5 | O=C(C[C@@H](c1ccc(Cl)cc1)c1c[nH]c2ccccc12)c1ccc2ccccc2c1 | 4.37 to 5.37 | – | –
6 | Cc1ccccc1NC(=O)Cn1cc(Cn2c(-c3ccc(Br)cc3)nc(-c3ccccc3)c2-c2ccccc2)nn1 | 4.32 to 4.82 | – | –
7 | O=C1Nc2cc(Cl)ccc2/C1=C/c1ccc(-c2nnc(-c3cc(O)cc(O)c3)o2)cc1 | – | 1.2 µM | –
8 | CCOc1ccc(NC(=O)Cn2cc(Cn3c(-c4ccc(C(=O)OC)cc4)nc(-c4ccccc4)c3-c3ccccc3)nn2)cc1 | 4.32 to 4.82 | – | –
9 | O=C(Cn1cc(Cn2c(-c3ccc(Br)cc3)nc(-c3ccccc3)c2-c2ccccc2)nn1)Nc1ccc(F)cc1 | 4.32 to 4.82 | – | –
10 | O=C(C[C@@H](c1ccc(Br)cc1)c1c[nH]c2ccccc12)c1ccccc1 | 4.37 to 5.37 | – | –
11 | O=C(C[C@@H](c1ccccc1)c1c[nH]c2ccccc12)c1ccc2ccccc2c1 | 4.37 to 5.37 | – | –
12 | CCOc1ccc(NC(=O)Cn2cc(Cn3c(-c4cccc(Cl)c4)nc(-c4ccccc4)c3-c3ccccc3)nn2)cc1 | 4.32 to 4.82 | – | –
13 | CCCCCCCCCCCC(=O)N/N=C1\C(=O)Nc2ccccc21 | 4.08 to 5.66 | – | –
14 | CCCN1C(=O)/C(=N\NC(=O)Cc2ccc(Cl)cc2Cl)c2ccccc21 | 4.08 to 5.66 | – | –
15 | CCOC(=O)CC(=O)OCC [MALONIC ACID DIETHYL ESTER] | 4.80 to 5.30 | – | –
16 | O=C(C[C@@H](c1cccc([N+](=O)[O-])c1)c1c[nH]c2ccccc12)c1ccccc1 | 4.37 to 5.37 | – | –
17 | O=C(C[C@@H](c1ccc(Cl)cc1)c1c[nH]c2ccccc12)c1ccccc1 | 4.37 to 5.37 | – | –
18 | COC(=O)c1ccc(-c2nc(-c3ccccc3)c(-c3ccccc3)n2Cc2cn(CC(=O)Nc3cc(Cl)ccc3Cl)nn2)cc1 | 4.32 to 4.82 | – | –
19 | CCn1c2ccccc2c2cc(NC(=O)CSc3nc4ccccc4[nH]3)ccc21 | – | 0.17 µM | –
20 | Cc1ccc(NC(=O)Cn2cc(Cn3c(-c4cccc(Cl)c4)nc(-c4ccccc4)c3-c3ccccc3)nn2)c(C)c1 | 4.32 to 4.82 | – | –

Row | Compound | pIC50 | IC50 | Ki
21 | CCOc1ccccc1NC(=O)Cn1cc(Cn2c(-c3ccccc3F)nc(-c3ccccc3)c2-c2ccccc2)nn1 | 4.32 to 4.82 | – | –
22 | COc1ccc(-c2nc(-c3ccccc3)c(-c3ccccc3)n2Cc2cn(CC(=O)Nc3ccc(Cl)cc3Cl)nn2)cc1OC | 4.32 to 4.82 | – | –
23 | O=C(C[C@@H](c1ccccc1)c1c[nH]c2ccccc12)c1ccccc1 | 4.37 to 5.37 | – | –
24 | Cc1ccccc1NC(=O)Cn1cc(Cn2c(-c3cccc(F)c3)nc(-c3ccccc3)c2-c2ccccc2)nn1 | 4.32 to 4.82 | – | –
25 | COc1ccccc1-c1nc(-c2ccccc2)c(-c2ccccc2)n1Cc1cn(CC(=O)Nc2ccc(C)cc2)nn1 | 4.32 to 4.82 | – | –
26 | O=C(C[C@@H](c1c(Cl)cccc1Cl)c1c[nH]c2ccccc12)c1ccccc1 | – | 4.3 µM | –
27 | COc1ccc(Cc2nnc(-c3ccc(Cl)cc3)n2Cc2nn(CN3CCN(C)CC3)c(=S)o2)cc1 | – | 4.3 µM | –
28 | Cc1ccc(NC(=O)Cn2cc(Cn3c(-c4cccc(F)c4)nc(-c4ccccc4)c3-c3ccccc3)nn2)c(C)c1 | 4.32 to 4.82 | – | –
29 | O=C1Nc2cc(Br)ccc2/C1=N/NC(=O)c1ccccc1O | 4.08 to 5.66 | – | –
30 | Cc1ccc(C(=O)N/N=C2\C(=O)Nc3ccc(Cl)cc32)cc1 | 4.08 to 5.66 | – | –
31 | O=C(C[C@@H](c1cccs1)c1c[nH]c2ccccc12)c1ccccc1 | 4.37 to 5.37 | – | –
32 | COC(=O)CC(C)=O | 4.60 to 4.72 | – | –
33 | O=C(C[C@@H](c1ccc(Cl)cc1Cl)c1c[nH]c2ccccc12)c1ccccc1 | 4.37 to 5.37 | – | –
34 | COc1ccc(Cc2nnc(-c3ccc(Cl)cc3)n2CC(=O)NNC(=S)Nc2ccc(Cl)cc2)cc1 | – | 3.4 µM | –
35 | O=C(Cn1cc(Cn2c(-c3ccc(F)cc3)nc(-c3ccccc3)c2-c2ccccc2)nn1)Nc1ccc(Cl)cc1Cl | 4.32 to 4.82 | – | –
36 | Cc1cccc([C@H](CC(=O)c2ccccc2)c2c[nH]c3ccccc23)c1 | 4.37 to 5.37 | – | –
37 | O=C1NC(=O)/C(=C/c2ccc(-c3nc4ccccc4n3Cc3ccc(Cl)cc3)cc2)S1 | – | 0.54 µM | –
38 | COc1ccc([C@H](CC(=O)c2ccc3ccccc3c2)c2c[nH]c3ccccc23)cc1 | 4.37 to 5.37 | – | –
39 | O=C(Cc1ccc(Cl)c(Cl)c1)N/N=C1\C(=O)Nc2cc(Br)ccc21 | 4.08 to 5.66 | – | –
40 | O=C1CSC(=O)N1 [THIAZOLIDINEDIONE] | 5.66 to 6.27 | – | –

Next, values leading:

Row | pIC50 | IC50 | Ki | Compound
41 | 3.53 to 4.70 | – | – | Cc1[nH]c2ccccc2c1-c1nnc(-c2ccc(C(c3c(C)n(C)c4ccccc34)c3c(C)n(C)c4ccccc34)cc2)o1
42 | 3.53 to 4.70 | – | – | N#Cc1ccc2[nH]cc(C(c3ccc(-c4nnc(-c5c[nH]c6ccccc56)o4)cc3)c3c[nH]c4ccc(C#N)cc34)c2c1
43 | 3.53 to 4.70 | – | – | Cc1[nH]c2ccccc2c1-c1nnc(-c2ccc(C(c3c[nH]c4ccccc34)c3c[nH]c4ccccc34)cc2)o1
44 | 3.53 to 4.70 | – | – | Cc1[nH]c2ccccc2c1-c1nnc(-c2ccc(C(c3c[nH]c4ccc(Cl)cc34)c3c[nH]c4ccc(Cl)cc34)cc2)o1
45 | 4.37 to 5.37 | – | – | Cc1ccc([C@H](CC(=O)c2ccccc2)c2c[nH]c3ccccc23)cc1
46 | 3.53 to 4.70 | – | – | Cn1cc(-c2nnc(-c3ccc(C(c4c[nH]c5ccc(Br)cc45)c4c[nH]c5ccc(Br)cc45)cc3)o2)c2ccccc21
47 | 3.53 to 4.70 | – | – | c1ccc2c(-c3nnc(-c4ccc(C(c5c[nH]c6ccccc56)c5c[nH]c6ccccc56)cc4)o3)c[nH]c2c1
48 | 3.53 to 4.70 | – | – | Clc1ccc2[nH]cc(C(c3ccc(-c4nnc(-c5c[nH]c6ccccc56)o4)cc3)c3c[nH]c4ccc(Cl)cc34)c2c1
49 | 3.53 to 4.70 | – | – | Cc1[nH]c2ccccc2c1-c1nnc(-c2ccc(C(c3c[nH]c4ccc(Br)cc34)c3c[nH]c4ccc(Br)cc34)cc2)o1
50 | 3.53 to 4.70 | – | – | Cn1cc(-c2nnc(-c3ccc(C(c4c(-c5ccccc5)[nH]c5ccccc45)c4c(-c5ccccc5)[nH]c5ccccc45)cc3)o2)c2ccccc21
51 | 3.53 to 4.70 | – | – | Cn1cc(-c2nnc(-c3ccc(C(c4c[nH]c5ccccc45)c4c[nH]c5ccccc45)cc3)o2)c2ccccc21
52 | – | 2 µM | – | Cn1cc(-c2nnc(-c3ccc(C(c4c[nH]c5ccccc45)c4c[nH]c5ccc(Cl)cc45)cc3)o2)c2ccccc21 (configuration not stated)
53 | 3.53 to 4.70 | – | – | Cc1[nH]c2ccccc2c1-c1nnc(-c2ccc(C(c3c[nH]c4ccc(C#N)cc34)c3c[nH]c4ccc(C#N)cc34)cc2)o1
54 | 3.53 to 4.70 | – | – | Cc1[nH]c2ccccc2c1-c1nnc(-c2ccc(C(c3cn(C)c4ccccc34)c3cn(C)c4ccccc34)cc2)o1
55 | 3.53 to 4.70 | – | – | Cn1cc(-c2nnc(-c3ccc(C(c4c[nH]c5ccc(C#N)cc45)c4c[nH]c5ccc(C#N)cc45)cc3)o2)c2ccccc21
56 | 3.53 to 4.70 | – | – | c1ccc(-c2[nH]c3ccccc3c2C(c2ccc(-c3nnc(-c4c[nH]c5ccccc45)o3)cc2)c2c(-c3ccccc3)[nH]c3ccccc23)cc1
57 | 3.53 to 4.70 | – | – | Cc1[nH]c2ccccc2c1-c1nnc(-c2ccc(C(c3c(-c4ccccc4)[nH]c4ccccc34)c3c(-c4ccccc4)[nH]c4ccccc34)cc2)o1
58 | 3.53 to 4.70 | – | – | Cn1cc(-c2nnc(-c3ccc(C(c4c[nH]c5ccc(Cl)cc45)c4c[nH]c5ccc(Cl)cc45)cc3)o2)c2ccccc21
59 | 4.37 to 5.37 | – | – | Cc1ccc([C@H](CC(=O)c2ccc3ccccc3c2)c2c[nH]c3ccccc23)cc1
60 | 3.53 to 4.70 | – | – | Cc1c(C(c2ccc(-c3nnc(-c4cn(C)c5ccccc45)o3)cc2)c2c(C)n(C)c3ccccc23)c2ccccc2n1C
61 | 3.53 to 4.70 | – | – | Cc1c(C(c2ccc(-c3nnc(-c4c[nH]c5ccccc45)o3)cc2)c2c(C)n(C)c3ccccc23)c2ccccc2n1C
